According to PubChem BioAssay (NCI):
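Abbreviation: GI50, concentration required for 50% inhibition of growth. TGI is the concentration that stops growth completely.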

How the values were obtained:
Experiment in all cases: growth of human tumour cells (NCI), 384-well format
NCI-H23 lung = system: NCI-H23 lung
KM12 colon = system: KM12 colon
HS 578T breast = system: HS 578T breast
HL-60(TB) leukemia = system: HL-60(TB) leukemia
ACHN renal = system: ACHN renal
MOLT-4 leukemia = system: MOLT-4 leukemia
HOP-62 NSCLC = system: HOP-62 NSCLC
NCI-H322M lung = system: NCI-H322M lung
NCI-H460 NSCLC = system: NCI-H460 NSCLC
UO-31 renal = system: UO-31 renal
MDA-MB-435 melanoma = system: MDA-MB-435 melanoma
CCRF-CEM leukemia = system: CCRF-CEM leukemia
OVCAR-8 ovarian = system: OVCAR-8 ovarian
MDA-MB-468 breast = system: MDA-MB-468 breast
NCI-H226 lung = system: NCI-H226 lung
SF-539 CNS = system: SF-539 CNS
NCI-H522 lung = system: NCI-H522 lung
SNB-19 CNS = system: SNB-19 CNS
DU-145 prostate = system: DU-145 prostate
SR leukemia = system: SR leukemia
NCI/ADR-RES ovarian = system: NCI/ADR-RES ovarian
TK-10 renal = system: TK-10 renal
HCC-2998 colon = system: HCC-2998 colon
SF-268 CNS = system: SF-268 CNS
K-562 leukemia = system: K-562 leukemia
OVCAR-5 ovarian = system: OVCAR-5 ovarian
SK-MEL-5 melanoma = system: SK-MEL-5 melanoma
CAKI-1 renal = system: CAKI-1 renal
MALME-3M melanoma = system: MALME-3M melanoma
T-47D breast = system: T-47D breast
A498 renal = system: A498 renal
SK-OV-3 ovarian = system: SK-OV-3 ovarian
IGROV1 ovarian = system: IGROV1 ovarian
OVCAR-4 ovarian = system: OVCAR-4 ovarian
RXF 393 renal = system: RXF 393 renal
HCT-15 colon = system: HCT-15 colon
UACC-62 melanoma = system: UACC-62 melanoma
BT-549 breast = system: BT-549 breast
LOX IMVI melanoma = system: LOX IMVI melanoma
UACC-257 melanoma = system: UACC-257 melanoma
786-0 renal = system: 786-0 renal
SNB-75 CNS = system: SNB-75 CNS
EKVX NSCLC = system: EKVX NSCLC
HT29 colon = system: HT29 colon
U251 glioblastoma = system: U251 glioblastoma
SK-MEL-28 melanoma = system: SK-MEL-28 melanoma
COLO 205 colon = system: COLO 205 colon
M14 melanoma = system: M14 melanoma
A549 NSCLC = system: A549 NSCLC
RPMI-8226 leukemia = system: RPMI-8226 leukemia
OVCAR-3 ovarian = system: OVCAR-3 ovarian
SF-295 CNS = system: SF-295 CNS
SN12C renal = system: SN12C renal
PC-3 prostate = system: PC-3 prostate
MDA-MB-231 breast = system: MDA-MB-231 breast
MCF7 breast = system: MCF7 breast
SW-620 colon = system: SW-620 colon
HOP-92 NSCLC = system: HOP-92 NSCLC

CCN1C(=O)CCCc2c1ccc(Nc1ncc(Cl)c(NC3[C@@H](C(N)=O)[C@@H]4C=C[C@H]3C4)n1)c2OC (stereo partly specified)
GI50 (NCI-H23 lung): 0.43 µM | TGI (NCI-H23 lung): 1.62 µM | GI50 (KM12 colon): 1.1 µM | TGI (KM12 colon): 8.56 µM | GI50 (HS 578T breast): 0.437 µM | TGI (HS 578T breast): 1.67 µM | GI50 (HL-60(TB) leukemia): 0.254 µM | TGI (HL-60(TB) leukemia): 0.532 µM | GI50 (ACHN renal): 1.2 µM | TGI (ACHN renal): 7.31 µM | GI50 (MOLT-4 leukemia): 0.137 µM | TGI (MOLT-4 leukemia): 0.287 µM | GI50 (HOP-62 NSCLC): 0.644 µM | TGI (HOP-62 NSCLC): 2.99 µM | GI50 (NCI-H322M lung): 1.9 µM | TGI (NCI-H322M lung): 5.61 µM | GI50 (NCI-H460 NSCLC): 0.355 µM | TGI (NCI-H460 NSCLC): 9.12 µM | GI50 (UO-31 renal): 1.63 µM | TGI (UO-31 renal): 14.3 µM | GI50 (MDA-MB-435 melanoma): 0.728 µM | TGI (MDA-MB-435 melanoma): 3.49 µM | GI50 (CCRF-CEM leukemia): 0.22 µM | TGI (CCRF-CEM leukemia): 0.402 µM | GI50 (OVCAR-8 ovarian): 0.349 µM | TGI (OVCAR-8 ovarian): 1.22 µM | GI50 (MDA-MB-468 breast): 0.365 µM | TGI (MDA-MB-468 breast): 0.912 µM | GI50 (NCI-H226 lung): 1.13 µM | TGI (NCI-H226 lung): 4.42 µM | GI50 (SF-539 CNS): 0.475 µM | TGI (SF-539 CNS): 1.78 µM | GI50 (NCI-H522 lung): 0.385 µM | TGI (NCI-H522 lung): 1.31 µM | GI50 (SNB-19 CNS): 1.38 µM | TGI (SNB-19 CNS): 7.13 µM | GI50 (DU-145 prostate): 0.577 µM | TGI (DU-145 prostate): 2.8 µM | GI50 (SR leukemia): 0.038 µM | TGI (SR leukemia): 0.126 µM | GI50 (NCI/ADR-RES ovarian): 1.07 µM | TGI (NCI/ADR-RES ovarian): 2.4 µM | GI50 (TK-10 renal): 1.3 µM | TGI (TK-10 renal): 3.75 µM | GI50 (HCC-2998 colon): 1.68 µM | TGI (HCC-2998 colon): 3.07 µM | GI50 (SF-268 CNS): 1.22 µM | TGI (SF-268 CNS): 4.35 µM | GI50 (K-562 leukemia): 0.722 µM | TGI (K-562 leukemia): 11.6 µM | GI50 (OVCAR-5 ovarian): 0.559 µM | TGI (OVCAR-5 ovarian): 2.31 µM | GI50 (SK-MEL-5 melanoma): 0.578 µM | TGI (SK-MEL-5 melanoma): 1.95 µM | GI50 (CAKI-1 renal): 1.23 µM | TGI (CAKI-1 renal): 4.5 µM | GI50 (MALME-3M melanoma): 0.517 µM | TGI (MALME-3M melanoma): 1.92 µM | GI50 (T-47D breast): 1.07 µM | TGI (T-47D breast): 4.24 µM | GI50 (A498 renal): 1.77 µM | TGI (A498 renal): 11.5 µM | GI50 (SK-OV-3 ovarian): 1.4 µM | TGI (SK-OV-3 ovarian): 3.25 µM | GI50 (IGROV1 ovarian): 1.32 µM | TGI (IGROV1 ovarian): 2.77 µM | GI50 (OVCAR-4 ovarian): 1.1 µM | TGI (OVCAR-4 ovarian): 2.7 µM | GI50 (RXF 393 renal): 1.62 µM | TGI (RXF 393 renal): 3.95 µM | GI50 (HCT-15 colon): 0.288 µM | TGI (HCT-15 colon): 1.21 µM | GI50 (UACC-62 melanoma): 0.536 µM | TGI (UACC-62 melanoma): 1.8 µM | GI50 (BT-549 breast): 0.509 µM | TGI (BT-549 breast): 1.88 µM | GI50 (LOX IMVI melanoma): 0.334 µM | TGI (LOX IMVI melanoma): 1.2 µM | GI50 (UACC-257 melanoma): 0.677 µM | TGI (UACC-257 melanoma): 2.15 µM | GI50 ([…]-0 renal): 0.624 µM | TGI (786-0 renal): 2.33 µM | GI50 (SNB-75 CNS): 1.1 µM | TGI (SNB-75 CNS): 9.58 µM | GI50 (EKVX NSCLC): 0.927 µM | TGI (EKVX NSCLC): 3.26 µM | GI50 (HT29 colon): 0.45 µM | TGI (HT29 colon): 2 µM | GI50 (U251 glioblastoma): 0.632 µM | TGI (U251 glioblastoma): 10.9 µM | GI50 (SK-MEL-28 melanoma): 1.08 µM | TGI (SK-MEL-28 melanoma): 2.57 µM | GI50 (COLO 205 colon): 0.318 µM | TGI (COLO 205 colon): 1.19 µM | GI50 (M14 melanoma): 0.499 µM | TGI (M14 melanoma): 1.7 µM | GI50 (A549 NSCLC): 0.366 µM | TGI (A549 NSCLC): 2.55 µM | GI50 (RPMI-8226 leukemia): 0.226 µM | TGI (RPMI-8226 leukemia): 0.501 µM | GI50 (OVCAR-3 ovarian): 1.02 µM | TGI (OVCAR-3 ovarian): 2.77 µM | GI50 (SF-295 CNS): 0.812 µM | TGI (SF-295 CNS): 8.31 µM | GI50 (SN12C renal): 1.21 µM | TGI (SN12C renal): 11.1 µM | GI50 (PC-3 prostate): 1.24 µM | TGI (PC-3 prostate): 3.81 µM | GI50 (MDA-MB-231 breast): 0.726 µM | TGI (MDA-MB-231 breast): 4.4 µM | GI50 (MCF7 breast): 0.562 µM | TGI (MCF7 breast): 2.34 µM | GI50 (SW-620 colon): 0.434 µM | TGI (SW-620 colon): 1.72 µM | GI50 (HOP-92 NSCLC): 0.665 µM | TGI (HOP-92 NSCLC): 3.99 µM
